Reference: patent US11730712B2, “Functionalized long-chain hydrocarbon mono- and di-carboxylic acids and derivatives thereof, and their use for the prevention or treatment of disease” (ESPERVITA THERAPEUTICS, INC., priority 2021, dated 2023)
Several values for one entry are separate records, joined by “and”; a condition that tells them apart may be missing. Identical values can stand only once.

Tests used:
Type in all cases: biochemical
Human ACC1 = target: T1, Human ACC1 (Homo sapiens, UniProt Q13085); assay: ACC1 enzymatic assay (ADP-Glo); settings: recombinant human ACC1 5 nM, 10 μM ATP, 10 μM acetyl CoA; Run 1-3; read-out: Compound IC50 (M) ACC1
T1 construct: FLAG (C); His (C); purchased BPS Biosciences 50202; host or cells: Baculovirus infected Sf9 cells
Experimental: Human ACC1 (Cat#50202 Lot #120830) and ACC2 (Cat #50201 Lot #160217) were obtained from BPS Biosciences, San Diego, Calif. 92121. Human ACC1 had C-terminal flag and His-tags with a MW of 270 KDa after purification from Baculovirus infected Sf9 cell expression system and came as a solution in 50 mM Tris-HCl, pH 8.0, 500 mM NaCl, 10% glycerol, 1 mM DTT, 100 μg/ml FLAG peptide with 70% purity. The stock concentration was 0.25 mg/ml corresponding to 0.926 μM. Human ACC2 was also purified from Baculovirus infected Sf9 expression system. […] The stock concentration was 0.1 mg/ml corresponding to 0.36 μM. The assay buffer for measuring the activity of ACC contained: 30 mM HEPES (pH 7.4), 2 mM MgCl2, 0.01% Brij35, 2 mM DTT, 1% DMSO (solvent for compound). For ACC1 and ACC2 assays, the following concentrations of substrate and cofactors were used: 12 mM NaHCO3, 10 μM acetyl CoA, 10 μM ATP, and 2 mM K-citrate. The recombinant human enzyme was used at 5 nM for ACC1 and 1 nM for ACC2. In brief, enzyme alone in the above buffer without substrate was used for background. All test materials were dissolved in 100% DMSO using acoustic technology (Echo550). The prepared solution was preincubated for 15 min followed by the addition of 5 μL/well of ADP standard. ATP was then added to start the reaction. The assay contents were spun and briefly shaken followed by incubation at room temperature for 1 h. At the end of completion of assay, 5 μL of ADP-Glo was added to each well to stop the reaction. The contents were mixed, spun and incubated at room temperature for 40 min followed by the addition of 10 μL/well of ADP detection reagent. The contents were spun, mixed and covered with plastic to measure luminescence. […] The light generated, measured in a luminometer, correlates to the amount of ADP generated in the ACC assay, which is indicative of ACC activity.
The enzyme concentrations for ACC1 and ACC2 were 5 nM and 1 nM, respectively.
Data represent nM or μM ADP produced, % Activity (relative to no inhibitor controls), and curve fits were performed by GraphPad Prism software. The IC50 concentration-response curves were generated for both the ACC1 and ACC2 assays using recombinant human ACC.

ERK7/MAPK15 = target: T2, ERK7/MAPK15 (Homo sapiens, UniProt Q8TD08); assay: Kinase assay, wild type kinases; settings: compound 10 μM, 10 μM ATP, duplicate (Data 1, Data 2), >100 activation, <100 inhibition; for remaining activity at 10 µM: read-out: % Enzyme Activity (relative to DMSO controls), ERK7/MAPK15
T2 sequence (Q8TD08 1-544): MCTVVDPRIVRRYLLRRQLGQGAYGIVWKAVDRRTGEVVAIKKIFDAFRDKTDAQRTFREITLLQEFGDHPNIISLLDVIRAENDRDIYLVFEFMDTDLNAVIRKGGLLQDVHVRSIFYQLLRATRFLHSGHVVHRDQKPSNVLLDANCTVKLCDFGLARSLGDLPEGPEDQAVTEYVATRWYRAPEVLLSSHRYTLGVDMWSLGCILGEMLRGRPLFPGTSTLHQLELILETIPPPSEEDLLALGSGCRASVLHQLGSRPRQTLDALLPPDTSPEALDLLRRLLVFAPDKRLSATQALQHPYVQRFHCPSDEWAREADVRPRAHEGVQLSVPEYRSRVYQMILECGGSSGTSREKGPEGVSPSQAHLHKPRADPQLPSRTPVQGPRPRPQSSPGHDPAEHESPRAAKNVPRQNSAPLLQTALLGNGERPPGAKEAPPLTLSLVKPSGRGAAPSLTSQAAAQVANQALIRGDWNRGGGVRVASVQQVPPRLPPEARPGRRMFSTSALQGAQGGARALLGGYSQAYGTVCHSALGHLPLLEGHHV

DDR2 = target: T3, DDR2 (Homo sapiens, UniProt Q16832); assay: Kinase assay, wild type kinases; settings: compound 10 μM, 10 μM ATP, duplicate (Data 1, Data 2), >100 activation, <100 inhibition; for remaining activity at 10 µM: read-out: % Enzyme Activity (relative to DMSO controls), DDR2
T3 sequence (Q16832 22-855): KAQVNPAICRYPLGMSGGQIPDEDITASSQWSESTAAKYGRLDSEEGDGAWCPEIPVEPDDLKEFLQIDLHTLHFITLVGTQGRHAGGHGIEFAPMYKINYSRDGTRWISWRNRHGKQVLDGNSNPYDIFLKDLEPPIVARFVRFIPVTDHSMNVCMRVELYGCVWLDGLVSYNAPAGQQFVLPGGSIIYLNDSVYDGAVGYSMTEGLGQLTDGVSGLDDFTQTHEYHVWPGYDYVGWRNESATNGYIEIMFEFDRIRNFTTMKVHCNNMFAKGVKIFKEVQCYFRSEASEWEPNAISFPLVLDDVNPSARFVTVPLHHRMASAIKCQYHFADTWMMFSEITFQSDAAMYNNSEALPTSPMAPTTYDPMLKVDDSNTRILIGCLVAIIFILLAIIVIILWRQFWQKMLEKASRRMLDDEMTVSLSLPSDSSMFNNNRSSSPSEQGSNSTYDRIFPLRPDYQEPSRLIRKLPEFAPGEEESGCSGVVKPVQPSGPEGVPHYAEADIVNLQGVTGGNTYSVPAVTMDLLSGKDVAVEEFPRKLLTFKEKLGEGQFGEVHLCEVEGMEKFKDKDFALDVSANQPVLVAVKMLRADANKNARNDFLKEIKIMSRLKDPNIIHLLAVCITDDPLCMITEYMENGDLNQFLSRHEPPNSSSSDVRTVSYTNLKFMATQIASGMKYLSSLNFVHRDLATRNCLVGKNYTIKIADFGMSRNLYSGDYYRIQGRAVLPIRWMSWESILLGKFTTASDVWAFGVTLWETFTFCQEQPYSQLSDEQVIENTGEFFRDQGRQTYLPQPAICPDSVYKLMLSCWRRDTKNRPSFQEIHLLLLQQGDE

CC(C)(CCCCc1cccc(CCCCC(C)(C)C(=O)SCCNC(=O)CCNC(=O)[C@H](O)C(C)(C)COP(=O)(O)OP(=O)(O)OC[C@H]2O[C@@H](n3cnc4c(N)ncnc43)[C@H](O)[C@@H]2OP(=O)(O)O)c1)C(=O)O [Compound I-32-CoA, 6-[3-(5-Carboxy-5-methylhexyl)-phenyl]-2,2-dimethylhexanoic acid Coenzyme A Ester]
IC50 (Human ACC1): 5.07e-06 M and 5e-06 M and 6.03e-06 M | % Enzyme Activity (relative to DMSO controls), ERK7/MAPK15 (ERK7/MAPK15): 88.39% and 80.61% | % Enzyme Activity (relative to DMSO controls), DDR2 (DDR2): 29.98% and 25.40%

CC(C)(CCCCc1cccc(CCCCC(C)(C)C(=O)O)c1)C(=O)O [Compound I-32, 6-[3-(5-carboxy-5-methylhexyl)-phenyl]-2,2-dimethylhexanoic acid]
IC50 (Human ACC1): 0.000284 M and 0.000272 M and 0.00022 M | remaining activity at 10 µM (ERK7/MAPK15): 104% | remaining activity at 10 µM (DDR2): 91.4%

CC(C)(CCCCc1ccc(CCCCC(C)(C)C(=O)SCCNC(=O)CCNC(=O)[C@H](O)C(C)(C)COP(=O)(O)OP(=O)(O)OC[C@H]2O[C@@H](n3cnc4c(N)ncnc43)[C@H](O)[C@@H]2OP(=O)(O)O)cc1)C(=O)O [Compound I-1-CoA, 6-[4-(5-carboxy-5-methylhexyl)-phenyl]-2,2-dimethylhexanoic acid Coenzyme A ester]
IC50 (Human ACC1): 1.63e-05 M and 1.33e-05 M and 1.25e-05 M | % Enzyme Activity (relative to DMSO controls), ERK7/MAPK15 (ERK7/MAPK15): 51.57% and 45.02% | % Enzyme Activity (relative to DMSO controls), DDR2 (DDR2): 88.28% and 79.94%

CC(C)(CCCCc1ccc(CCCCC(C)(C)C(=O)O)cc1)C(=O)O [Compound I-1, 6-[4-(5-carboxy-5-methylhexyl)-phenyl]-2,2-dimethylhexanoic acid]
remaining activity at 10 µM (ERK7/MAPK15): 100% | remaining activity at 10 µM (DDR2): 79.8%
